Test systems include Escherichia coli; Streptococcus mutans; Streptococcus pneumoniae; Candida albicans; Cryptococcus neoformans; Saccharomyces cerevisiae; Staphylococcus aureus; Pseudomonas putida; Bacillus subtilis; Serratia marcescens; Salmonella typhimurium; Escherichia coli UB1005; Candida albicans SC5314; Candida krusei ATCC 6258.
What all share (assay): ≥ marks a high value that may be exact or a test limit, other limits are often not marked, values filed in µg/mL are converted to µM
For experiment [1], the system named is Salmonella typhimurium ATCC 7731.
In experiment [2] the test system is Pseudomonas aeruginosa ATCC 27853.
Experiment [3] relates to Bacillus subtilis CMCC 63501.
The subject of experiment [4] is Pseudomonas aeruginosa PAO1.
For experiment [5], the system named is Staphylococcus epidermidis ATCC 12228.
The test system of experiment [6] is Salmonella enterica subsp. enterica serovar Typhimurium ATCC 14028.
The subject of experiment [7] is Enterococcus faecalis ATCC 29212.
The test system of experiment [8] is Salmonella enterica subsp. enterica serovar Pullorum C79-13.
Experiment [9] deals with Staphylococcus aureus ATCC 29213.
In experiment [10] the test system is Escherichia coli ATCC 25922.
For experiment [11], the system named is Staphylococcus aureus ATCC 43300.
Experiment [12] has as its system Staphylococcus aureus ATCC 15752.
Experiment [13] deals with Pseudomonas putida ATCC 17426.
Experiment [14] has as its system Streptococcus mutans ATCC 25175.
The subject of experiment [15] is Salmonella enterica subsp. enterica serovar Enteritidis ATCC 13076.
Experiment [16] has as its system Cryptococcus neoformans ATCC 34881.
In experiment [17] the test system is Escherichia coli ATCC 27325.
For experiment [18], the system named is Bacillus subtilis ATCC 62037.
Experiment [19] concerns Saccharomyces cerevisiae ATCC 44774.
In experiment [20] the test system is Candida albicans ATCC 10231.
For experiment [21], the system named is Candida albicans ATCC 90028.
Experiment [22] has as its system Candida parapsilosis ATCC 22019.
The subject of experiment [23] is Candida tropicalis ATCC 13803.
Experiment [24] has as its system Bacillus subtilis ATCC 19659.
In experiment [25] the test system is Staphylococcus aureus ATCC 25923.

The structures appear in SMILES notation. Converted amounts (≈) assume the structure as drawn.

Seven compounds from DBAASP can be followed below.

In general, MIC refers to the smallest concentration in the dilution series that meets the test's criterion for growth inhibition. Low readings indicate inhibition by little substance, high ones a need for much substance.

Regarding `CC(C)C[C@H](NC(=O)CNC(=O)[C@H](CCCCN)NC(=O)[C@@H](N)CCCN=C(N)N)C(=O)N[C@@H](CCC(N)=O)C(=O)N[C@@H](CCCCN)C(=O)N[C@@H](CC(C)C)C(=O)N[C@H](C(=O)NCC(=O)N[C@@H](CCCN=C(N)N)C(=O)N[C@H](C(=O)N[C@@H](Cc1cnc[nH]1)C(=O)N[C@@H](CCCN=C(N)N)C(=O)N[C@@H](CC(C)C)C(=O)N[C@@H](CC(C)C)C(=O)N[C@@H](CCCN=C(N)N)C(=O)N[C@@H](CCCCN)C(=O)O)C(C)C)C(C)C` [RKGLQKLVGRVHRLLRK], the minimum inhibitory concentration (MIC) is 7.78 µM (≈ 16 µg/mL) against Escherichia coli; 15.6 µM (≈ 32 µg/mL) with Streptococcus mutans; 7.78 µM (≈ 16 µg/mL) against Streptococcus pneumoniae; 7.78 µM (≈ 16 µg/mL) with Candida albicans; 3.89 µM (≈ 8 µg/mL) against Cryptococcus neoformans; 1.94 µM (≈ 4 µg/mL) in the experiment with Saccharomyces cerevisiae. Also, the MIC in the experiment with Staphylococcus aureus was 7.78 µM (≈ 16 µg/mL); with Pseudomonas putida it was 7.78 µM (≈ 16 µg/mL); against Bacillus subtilis it was 7.78 µM (≈ 16 µg/mL); against Serratia marcescens it was 15.6 µM (≈ 32 µg/mL); in the experiment with Salmonella typhimurium, 1.94 µM (≈ 4 µg/mL).

Regarding `CC[C@H](C)[C@H](NC(=O)[C@H](CCCN=C(N)N)NC(=O)[C@@H](N)Cc1ccccc1)C(=O)N[C@@H](CCCN=C(N)N)C(=O)N[C@H](C(=O)N[C@@H](CCCN=C(N)N)C(=O)N[C@H](C(N)=O)C(C)C)C(C)C` [FRIRVRV], the MIC in experiment [1] is not below 32 µM; in experiment [2], 16 µM (≈ 15.1 µg/mL); in experiment [3], 16 µM (≈ 15.1 µg/mL); in experiment [4], 32 µM (≈ 30.2 µg/mL); in [5] it was 32 µM (≈ 30.2 µg/mL); in [6], 16 µM (≈ 15.1 µg/mL). In addition, the MIC was not below 32 µM against Escherichia coli UB1005 and 32 µM (≈ 30.2 µg/mL) in experiment [7].

With `CC(C)C[C@H](NC(=O)[C@H](CCCCN)NC(=O)[C@H](CCCCN)NC(=O)[C@H](C)NC(=O)[C@@H](NC(=O)[C@H](CCCCN)NC(=O)[C@H](CO)NC(=O)[C@H](CC(C)C)NC(=O)[C@H](Cc1c[nH]c2ccccc12)NC(=O)[C@H](CC(C)C)NC(=O)[C@H](CCCCN)NC(=O)[C@H](CCCCN)NC(=O)[C@H](C)NC(=O)[C@@H](NC(=O)[C@H](CCCCN)NC(=O)[C@H](CO)NC(=O)[C@H](CC(C)C)NC(=O)[C@@H](N)Cc1c[nH]c2ccccc12)[C@@H](C)O)[C@@H](C)O)C(N)=O` [WLSKTAKKLWLSKTAKKL], the minimum inhibitory concentration (MIC) is not below 32 µM in [1]; 16 µM (≈ 34.1 µg/mL) in experiment [8]; 16 µM (≈ 34.1 µg/mL) in experiment [2]; 128 µM (≈ 273 µg/mL) in experiment [9]; not below 64 µM in [3]; 128 µM (≈ 273 µg/mL) in experiment [5]. Also, the minimum inhibitory concentration (MIC) with Escherichia coli UB1005 was found to be 8 µM (≈ 17 µg/mL); in [10], 8 µM (≈ 17 µg/mL); in experiment [11] it was 128 µM (≈ 273 µg/mL).

Regarding `CC(C)C[C@H](NC(=O)CNC(=O)[C@H](C)NC(=O)[C@@H](N)CCCN=C(N)N)C(=O)N[C@@H](CCC(N)=O)C(=O)N[C@@H](Cc1ccccc1)C(=O)N1CCC[C@H]1C(=O)N[C@H](C(=O)NCC(=O)N[C@@H](CCCN=C(N)N)C(=O)N[C@@H](CC(C)C)C(=O)N[C@@H](CC(C)C)C(=O)N[C@@H](CCCN=C(N)N)C(=O)N[C@@H](CCCN=C(N)N)C(=O)N[C@@H](CC(C)C)C(=O)N[C@@H](CC(C)C)C(=O)N[C@@H](CCCN=C(N)N)C(=O)N[C@@H](CCCN=C(N)N)C(=O)N[C@@H](CC(C)C)C(=O)N[C@@H](CC(C)C)C(=O)N[C@@H](CCCN=C(N)N)C(=O)O)C(C)C` [RAGLQFPVGRLLRRLLRRLLR], the MIC against Escherichia coli worked out at 0.391 µM (≈ 1 µg/mL); in [12], 0.781 µM (≈ 2 µg/mL); in experiment [13] it was 0.781 µM (≈ 2 µg/mL); in the experiment on Streptococcus mutans, 0.195 µM (≈ 0.5 µg/mL); with Streptococcus pneumoniae it was 0.391 µM (≈ 1 µg/mL); in [14], 0.781 µM (≈ 2 µg/mL). The MIC against Candida albicans was determined as 0.781 µM (≈ 2 µg/mL); against Cryptococcus neoformans it was 0.391 µM (≈ 1 µg/mL); in experiment [15], 0.781 µM (≈ 2 µg/mL); against Saccharomyces cerevisiae, 1.56 µM (≈ 4 µg/mL); in the experiment on Staphylococcus aureus it was 0.391 µM (≈ 1 µg/mL); against Pseudomonas putida it was 0.781 µM (≈ 2 µg/mL). Moreover, the minimal inhibitory concentration (MIC) with Bacillus subtilis is 0.391 µM (≈ 1 µg/mL); against Serratia marcescens, 0.391 µM (≈ 1 µg/mL); in [16] it was 0.781 µM (≈ 2 µg/mL); in experiment [17] it was 0.391 µM (≈ 1 µg/mL); in [18] it was 0.391 µM (≈ 1 µg/mL); in experiment [19], 0.781 µM (≈ 2 µg/mL). In addition, the minimum inhibitory concentration (MIC) (against Salmonella typhimurium; in experiment [20]) was 0.391 µM (≈ 1 µg/mL) each time.

Consider `CC[C@H](C)[C@H](NC(=O)[C@@H](NC(=O)CN)C(C)C)C(=O)N[C@@H](CCCCN)C(=O)N[C@@H](C)C(=O)N[C@@H](C)C(=O)N[C@@H](CCCCN)C(=O)N[C@@H](CCCCN)C(=O)N[C@H](C(=O)N[C@H](C(=O)N[C@@H](CC(N)=O)C(=O)N[C@H](C(=O)N[C@@H](CC(C)C)C(=O)N[C@@H](CCCCN)C(=O)N[C@@H](CC(N)=O)C(=O)N[C@@H](CC(C)C)C(=O)N[C@@H](Cc1ccccc1)C(N)=O)C(C)C)C(C)C)C(C)C` [GVIKAAKKVVNVLKNLF], for which the MIC is not below 69.5 µM in experiment [21], not below 34.8 µM in [22], not below 34.8 µM against Candida albicans SC5314 and not below 34.8 µM in the experiment on Candida krusei ATCC 6258.

In the case of `NCCCC[C@H](NC(=O)[C@@H](N)CS)C(=O)N[C@@H](Cc1ccc(O)cc1)C(=O)N[C@@H](CCCN=C(N)N)C(=O)N[C@@H](Cc1c[nH]c2ccccc12)C(=O)N[C@@H](CCCN=C(N)N)C(=O)O` [CKYRWR], the minimal inhibitory concentration (MIC) in [22] was not below 220 µM; against Candida albicans SC5314 it was not below 439 µM; in [23], not below 220 µM.

Consider `CC[C@H](C)[C@H](NC(C)=O)C(=O)N[C@@H](Cc1ccccc1)C(=O)NCC(=O)N[C@@H](C)C(=O)N[C@H](C(=O)N[C@@H](Cc1c[nH]c2ccccc12)C(=O)N1CCC[C@H]1C(=O)N[C@@H](CC(C)C)C(=O)N[C@@H](C)C(=O)N[C@@H](CC(C)C)C(=O)NCC(=O)N[C@@H](C)C(=O)N[C@@H](CC(C)C)C(=O)N[C@@H](CCCCN)C(=O)N[C@@H](CC(N)=O)C(=O)N[C@@H](CC(C)C)C(=O)N[C@H](C(=O)N[C@@H](CCCCN)C(N)=O)[C@@H](C)CC)[C@@H](C)CC` [IFGAIWPLALGALKNLIK], for which the MIC in experiment [24] was 4 µM (≈ 7.92 µg/mL); in experiment [21] it was not below 32 µM; in [2] it was more than 128 µM; in experiment [22], not below 125 µM; in [25] it was 4 µM (≈ 7.92 µg/mL); in experiment [10] it was 128 µM (≈ 253 µg/mL). Further, the MIC in the experiment with Candida krusei ATCC 6258 was not below 125 µM.
